“Also recorded” adds a separate entry of the source. A value given as a limit tells only on which side of the number the result lay.

One data set relates to MIA-PaCa2 cancer cells. The data set can be described thus: Combination of JAC-B2 or JAC-R2 with another drug, cell survival by Pico Green, BLISS/HSA plot analyses. Type of data set: cell-based. The protocol:
(§1) We analyzed cell survival using Pico Green and determined the combinational effects through BLISS/HSA plot analyses.
MIA-PaCa2 pancreatic cancer cells were purchased from the American Type Culture Collection (ATCC, Manassas, VA, USA) and grown in normal culture media (DMEM media, 10% FBS, 1% L-glutamine, 1% Penicillin-Streptomycin) at normal conditions (37° C., 5% CO2). Cells were trypsinized and plated at 1 thousand cells per well and in 96-well plates. […] Cell viability was assessed using pico-green dsDNA measurement and IC50S were calculated using GraphPad® (GraphPad Software, San Diego, CA, USA) by employing normalized nonlinear regression models. A summary of the combined efficacy of a compound of Formula I and an additional therapeutic agent is show in Table 2.

For a further data set, the system named is ASPC1 cancer cells. The experiment in a line: Combination of JAC-B2 with another drug, cell survival by Pico Green, BLISS/HSA plot analyses. Type of data set: cell-based. Particulars: combined with PDDX04, 5 days, FIG. 7P.
From the text: as §1

The subject of a further data set is HT29 cancer cells. Described as above. Type of data set: cell-based. The note with it: combined with Cobimetinib, 5 days, FIG. 7O.
From the text: as §1

Data set [1] is described as follows: Solubility of glycerol-containing formulations (post vortexing, 30 min and overnight at 18° C.). The class given is physicochemical. Particulars: glycerol-containing formulation, compound 2 mg/mL; for solubility at 30 min / solubility: 18 °C; for solubility at 30 min: after 30 minutes incubation at 18° C.; for solubility: overnight incubation at 18° C.; for solubility at 30 s: post vortexing. The protocol:
Tables 3A, 3B, and 3C describe solubility experiments conducted with the indicated compounds under the listed conditions. Vortexing was conducted using a Denville Vortexer 59 (Denville Scientific Inc.), at maximum speed for 30 seconds. As used herein, the term overnight refers to a period lasting at least about 12-24 hours.

Data set [2] can be described thus: Solubility of BSA-containing formulations (post vortexing, 30 min and overnight at 18° C.). Type of data set: physicochemical. The note with it: BSA-containing formulation, aqueous with cosolvent or surfactant or cyclodextrin, compound 2 mg/mL; for solubility at 30 min / solubility: 18 °C; for solubility at 30 min: after 30 minutes incubation at 18° C.; for solubility: overnight incubation at 18° C.; for solubility at 30 s: post vortexing. Here is the method: Vortexing was conducted using a Denville Vortexer 59 (Denville Scientific Inc.), at maximum speed for 30 seconds. As used herein, the term overnight refers to a period lasting at least about 12-24 hours.

Setting [3] is: combined with Azacitidine, 5 days, MIA-PaCa2, FIG. 7J (JAC-B2), FIG. 7L (JAC-R2).
[4] abbreviates: combined with Decitabine, 5 days, MIA-PaCa2, FIG. 7I (JAC-B2), FIG. 7K (JAC-R2).
Where [5] appears, read: combined with Paclitaxel, 5 days, FIG. 7F (JAC-B2), FIG. 7M (JAC-R2).

Consider `CCN1/C(=C/C=C/C=C/c2sc3ccccc3[n+]2CC)Sc2ccccc21` [JAC-B2, Dithiazanine Iodide], for which the Effect of combination entry in the data set on MIA-PaCa2 cancer cells (combined with 5-Fluorouracil, 5 days, FIG. 7N) is on record as “Synergistic”; in the data set with MIA-PaCa2 cancer cells (combined with Abemaciclib, 5 days, MIA-PaCa2, FIG. 7H), “Synergistic”; in the data set with MIA-PaCa2 cancer cells (combined with Adavosertib, 5 days, MIA-PaCa2, FIG. 7R), “Synergistic”; with MIA-PaCa2 cancer cells (setting [3]), “Synergistic”; in the data set on MIA-PaCa2 cancer cells (combined with Colchicine, 5 days, MIA-PaCa2, FIG. 7Q) it was “Synergistic”; in the data set on MIA-PaCa2 cancer cells (setting [4]) it was “Synergistic”. For the same compound, the Effect of combination result is “Additive” in the data set with MIA-PaCa2 cancer cells (combined with Everolimus, 5 days, MIA-PaCa2, FIG. 7E); “antagonistic response; also recorded: Antagonistic/Additive” with MIA-PaCa2 cancer cells (combined with Gemcitabine, 5 days, MIA-PaCa2, FIG. 7A); “Antagonistic/Additive” in the data set on MIA-PaCa2 cancer cells (combined with Hydralazine, no figure); “Additive” in the data set with MIA-PaCa2 cancer cells (combined with Irinotecan, 5 days, MIA-PaCa2, FIG. 7C); “Additive” in the data set with MIA-PaCa2 cancer cells (combined with Metformin, no figure); “Additive” in the data set with MIA-PaCa2 cancer cells (combined with Methotrexate, 5 days, MIA-PaCa2, FIG. 7B). The Effect of combination result with MIA-PaCa2 cancer cells (combined with Olaparib, 5 days, MIA-PaCa2, FIG. 7D) is given as “antagonistic response; also recorded: Antagonistic/Additive”; with MIA-PaCa2 cancer cells (combined with Oxaliplatin, 5 days, MIA-PaCa2, FIG. 7G), “Synergistic”; in the data set on MIA-PaCa2 cancer cells (setting [5]), “Synergistic”; with MIA-PaCa2 cancer cells (combined with VE-821, 5 days, MIA-PaCa2, FIG. 7S) it was “Synergistic”; in the data set with ASPC1 cancer cells it was “Synergistic”; in the data set with HT29 cancer cells, “Synergistic”.

As to `CCN1/C(=C/C(C)=C/c2sc3ccccc3[n+]2CC)Sc2ccccc21` [JAC-B2.5, 3,3′-Diethyl-9-methylthiacarbocyanine iodide], the solubility at 30 min was less than 2000 µg/mL in data set [1] (aqueous with cosolvent or surfactant or cyclodextrin, 10% glycerol, read-out: Solubility of glycerol-containing formulations after 30 min incubation at 18° C., 10%); less than 2000 µg/mL in data set [1] (aqueous with cosolvent or surfactant or cyclodextrin, 20% glycerol, read-out: Solubility of glycerol-containing formulations after 30 min incubation at 18° C., 20%); less than 2000 µg/mL in data set [1] (aqueous with cosolvent or surfactant or cyclodextrin, 30% glycerol, read-out: Solubility of glycerol-containing formulations after 30 min incubation at 18° C., 30%); less than 2000 µg/mL in data set [1] (aqueous with cosolvent or surfactant or cyclodextrin, 40% glycerol, read-out: Solubility of glycerol-containing formulations after 30 min incubation at 18° C., 40%); less than 2000 µg/mL in data set [1] (aqueous with cosolvent or surfactant or cyclodextrin, 50% glycerol, read-out: Solubility of glycerol-containing formulations after 30 min incubation at 18° C., 50%); less than 2000 µg/mL in data set [1] (0% glycerol, read-out: Solubility of glycerol-containing formulations after 30 min incubation at 18° C., 0%). For the same compound, the solubility at 30 min was less than 2000 µg/mL in data set [2] (BSA 40 mg/mL, read-out: Solubility of BSA-containing formulations after 30 min incubation at 18° C., 40 mg/mL); less than 2000 µg/mL in data set [2] (BSA 60 mg/mL, read-out: Solubility of BSA-containing formulations after 30 min incubation at 18° C., 60 mg/mL); less than 2000 µg/mL in data set [2] (BSA 80 mg/mL, read-out: Solubility of BSA-containing formulations after 30 min incubation at 18° C., 80 mg/mL); less than 2000 µg/mL in data set [2] (BSA 100 mg/mL, read-out: Solubility of BSA-containing formulations after 30 min incubation at 18° C., 100 mg/mL). The solubility in data set [1] (aqueous with cosolvent or surfactant or cyclodextrin, 10% glycerol, read-out: Solubility of glycerol-containing formulations after overnight incubation at 18° C., 10%) was less than 2000 µg/mL; in data set [1] (aqueous with cosolvent or surfactant or cyclodextrin, 20% glycerol, read-out: Solubility of glycerol-containing formulations after overnight incubation at 18° C., 20%), less than 2000 µg/mL; in data set [1] (aqueous with cosolvent or surfactant or cyclodextrin, 30% glycerol, read-out: Solubility of glycerol-containing formulations after overnight incubation at 18° C., 30%), less than 2000 µg/mL; in data set [1] (aqueous with cosolvent or surfactant or cyclodextrin, 40% glycerol, read-out: Solubility of glycerol-containing formulations after overnight incubation at 18° C., 40%) it was less than 2000 µg/mL; in data set [1] (aqueous with cosolvent or surfactant or cyclodextrin, 50% glycerol, read-out: Solubility of glycerol-containing formulations after overnight incubation at 18° C., 50%) it was less than 2000 µg/mL; in data set [1] (0% glycerol, read-out: Solubility of glycerol-containing formulations after overnight incubation at 18° C., 0%), less than 2000 µg/mL. The solubility is less than 2000 µg/mL in data set [2] (BSA 40 mg/mL, read-out: Solubility of BSA-containing formulations after overnight incubation at 18° C., 40 mg/mL); less than 2000 µg/mL in data set [2] (BSA 60 mg/mL, read-out: Solubility of BSA-containing formulations after overnight incubation at 18° C., 60 mg/mL); less than 2000 µg/mL in data set [2] (BSA 80 mg/mL, read-out: Solubility of BSA-containing formulations after overnight incubation at 18° C., 80 mg/mL); less than 2000 µg/mL in data set [2] (BSA 100 mg/mL, read-out: Solubility of BSA-containing formulations after overnight incubation at 18° C., 100 mg/mL). For the same compound, the solubility at 30 s in data set [1] (aqueous with cosolvent or surfactant or cyclodextrin, 10% glycerol, read-out: Solubility of glycerol-containing formulations post vortexing, 10%) was less than 2000 µg/mL; in data set [1] (aqueous with cosolvent or surfactant or cyclodextrin, 20% glycerol, read-out: Solubility of glycerol-containing formulations post vortexing, 20%), less than 2000 µg/mL; in data set [1] (aqueous with cosolvent or surfactant or cyclodextrin, 30% glycerol, read-out: Solubility of glycerol-containing formulations post vortexing, 30%) it was less than 2000 µg/mL; in data set [1] (aqueous with cosolvent or surfactant or cyclodextrin, 40% glycerol, read-out: Solubility of glycerol-containing formulations post vortexing, 40%), less than 2000 µg/mL; in data set [1] (aqueous with cosolvent or surfactant or cyclodextrin, 50% glycerol, read-out: Solubility of glycerol-containing formulations post vortexing, 50%) it was less than 2000 µg/mL; in data set [1] (0% glycerol, read-out: Solubility of glycerol-containing formulations post vortexing, 0%), less than 2000 µg/mL. Further, the solubility at 30 s is less than 2000 µg/mL in data set [2] (BSA 40 mg/mL, read-out: Solubility of BSA-containing formulations post vortexing, 40 mg/mL); less than 2000 µg/mL in data set [2] (BSA 60 mg/mL, read-out: Solubility of BSA-containing formulations post vortexing, 60 mg/mL); less than 2000 µg/mL in data set [2] (BSA 80 mg/mL, read-out: Solubility of BSA-containing formulations post vortexing, 80 mg/mL); less than 2000 µg/mL in data set [2] (BSA 100 mg/mL, read-out: Solubility of BSA-containing formulations post vortexing, 100 mg/mL).

As for `CCN1/C(=C/C=C/C=C/c2oc3ccccc3[n+]2CC)Oc2ccccc21` [JAC-R2, 3′,3′-Diethyloxadicarbocyanine iodide], the Effect of combination entry in the data set with MIA-PaCa2 cancer cells (setting [3]), in the data set with MIA-PaCa2 cancer cells (setting [4]) and in the data set with MIA-PaCa2 cancer cells (setting [5]) was “Synergistic” throughout.

(Values after patent US20230150960A1, “COMPOSITIONS AND METHODS OF USING CYANINE DYES TO TARGET CANCER AND MITOCHONDRIA” (Thomas Jefferson University, priority 2020, published 2023).)
